Test results published in US10351589B2, “3α-ethynyl, 3β-hydroxy-5α-pregnan-20-oxime for use in the treatment of CNS disorders” (Umecrine Cognition AB, priority 2015, dated 2019).

Assays:
Type in all cases: cell-based
α5β3γ2L GABAA receptor [1] = target: T1, α5β3γ2L GABAA receptor (Homo sapiens, UniProt P18507+P28472+P31644); assay: Example 3: comparative patch clamp test of compound and epimer, change in chloride flow through α5β3γ2L GABAA receptor; conditions: for action on the GABA receptor subunit alpha 5: summary of Table 4
T1 construct: expressed in transfected cells; host or cells: HEK-293 (permanently transfected)
T1 sequence (P31644 32-462): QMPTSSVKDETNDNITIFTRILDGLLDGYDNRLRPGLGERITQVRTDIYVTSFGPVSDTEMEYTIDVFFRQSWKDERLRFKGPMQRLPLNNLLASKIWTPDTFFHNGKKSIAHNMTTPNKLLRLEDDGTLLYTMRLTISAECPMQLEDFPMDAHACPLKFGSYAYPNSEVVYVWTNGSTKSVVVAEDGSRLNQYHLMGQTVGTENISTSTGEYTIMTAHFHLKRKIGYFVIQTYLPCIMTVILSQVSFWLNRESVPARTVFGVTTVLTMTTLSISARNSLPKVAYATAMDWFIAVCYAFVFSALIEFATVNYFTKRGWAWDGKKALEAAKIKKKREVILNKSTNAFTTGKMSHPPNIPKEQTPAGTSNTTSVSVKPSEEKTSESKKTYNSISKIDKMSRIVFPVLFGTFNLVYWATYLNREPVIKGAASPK
T1 sequence (P28472 26-473): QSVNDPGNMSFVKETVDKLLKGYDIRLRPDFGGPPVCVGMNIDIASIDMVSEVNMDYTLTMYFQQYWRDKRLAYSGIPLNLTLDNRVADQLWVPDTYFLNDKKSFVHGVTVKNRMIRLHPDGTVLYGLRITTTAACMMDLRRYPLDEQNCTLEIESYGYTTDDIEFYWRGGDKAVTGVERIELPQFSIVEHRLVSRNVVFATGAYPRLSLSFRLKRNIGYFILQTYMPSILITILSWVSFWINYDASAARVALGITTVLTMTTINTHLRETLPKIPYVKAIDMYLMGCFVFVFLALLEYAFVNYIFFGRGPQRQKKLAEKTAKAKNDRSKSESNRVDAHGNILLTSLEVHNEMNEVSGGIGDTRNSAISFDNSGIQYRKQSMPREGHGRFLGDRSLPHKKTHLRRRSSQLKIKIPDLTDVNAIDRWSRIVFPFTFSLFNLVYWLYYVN
T1 sequence (P18507 40-475): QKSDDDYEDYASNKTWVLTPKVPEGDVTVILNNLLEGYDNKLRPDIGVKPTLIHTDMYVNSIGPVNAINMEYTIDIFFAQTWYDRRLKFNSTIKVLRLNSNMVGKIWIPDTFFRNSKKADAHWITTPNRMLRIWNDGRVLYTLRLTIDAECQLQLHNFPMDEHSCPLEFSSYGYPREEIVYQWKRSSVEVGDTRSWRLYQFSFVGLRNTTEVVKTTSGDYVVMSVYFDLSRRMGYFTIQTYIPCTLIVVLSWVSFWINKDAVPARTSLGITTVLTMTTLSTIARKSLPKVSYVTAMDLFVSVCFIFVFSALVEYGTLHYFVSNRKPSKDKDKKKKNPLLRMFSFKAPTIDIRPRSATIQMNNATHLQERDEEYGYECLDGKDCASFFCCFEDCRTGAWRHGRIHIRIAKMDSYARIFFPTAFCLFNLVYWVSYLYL
Excerpt: (§1) HEK-293 cells, permanently transfected with the human α1β2γ2 GABAA and α5β3γ2 GABAA receptor expressing functional α1β2γ2L and α5β3γ2L GABAA receptors were used. The cell lines permanently expressing a functional human GABAA receptor was made in following steps. The GABAA receptor subunits α1(308-1727 NM_000806), β2 (214-1679 NM_000813), and γ2L (290-1785 NM_198904) including introduced Kozac sequences just before the start codons were subcloned into mammalian expression vectors containing Geneticin, Hygromycin B, and Zeocin resistance, respectively. A HEK-293 cell line stably expressing the three GABAA receptor subunits was produced by transfection of the subunits one at a time. The transfection was followed by selection with the appropriate antibiotics, cell separation with the use of subunit specific antibodies (β2 and γ2), and production of single cell colonies. Produced cell lines were analysed with immunocytochemistry for the three GABAA receptor subunits, followed by selection of a suitable cell line showing for the GABAA receptor normal and good reactivity in a patch-clamp analysis (see below) towards GABA and the GAMS tetrahydrodeoxycorticosterone (THDOC).
(§2) Experiments were carried out to investigate the effect of 3α-ethynyl, 3β-hydroxy, 5α-pregnan-20-oxime on the GABAA receptor function in absence and in presence of the GAMS Tetrahydrodeoxycorticosterone (THDOC) by the Dynaflow™ system on HEK-293 cells. In these tests the protocol was optimized to be similar to the physiological conditions in the synaptic cleft.
(§3) Cell culture: HEK-293 cells, permanently transfected with human α1β2γ2 GABAA and α5β3γ2 GABAA receptor subtypes, were seeded at a density of 3×10^4/25 cm^2 in cellbind culture flask. The transfected cells were used for patch-clamp experiments 3 days after seeding. When using the cells for patch-clamp experiments the cells were washed twice with O2 bubbled EC-solution (see below). About 5 mL EC was then added and the cells were kept in the incubator for about 15 minutes. After 15 minutes the cells come loose from the bottom of the flask and were separated by carefully sucking couple of times with a Pasteur pipette.
(§4) Dynaflow™ system: Dynaflow™ system with resolve chips was used for all patch-clamp experiments. The resolve chips is made of non-sticky materials. The channel width is 150 μm and the height 50 μm. The well volume is 280 μL. Run time at the flow rate of […]. is […]. The pump settings were as follow: Omnifix 2 mL syringe with inner diameter of 9.65 mm was used. The syringe pump flow rate of chip was 26 μL/min.
Electrophysiology: Patch electrodes were pulled from 1.5 mm O.D., 0.86 mm I.D. borosilicate capillary glass without filament. […] The intracellular solution consisted of (in mM): 140 Cs-gluconate, 3.0 NaCl, 1.2 MgCl2, 1.0 EGTA, 10 HEPES. pH was adjusted to 7.2 with CsOH. The extracellular (EC) solution used during recordings contained (in mM): 137 NaCl, 5.0 KCl, 1.0 CaCl2, 1.2 MgCl2, 10 HEPES, 10 glucose. pH was adjusted with NaOH to 7.4. After compensating for the liquid junction potential a steady holding potential of −17 mV was used in all experiments. In physiological conditions the HEK-293 has a resting potential at −40 mV and a low concentration of chloride ions inside the cell. By using the holding potential of −17 mV and the intracellular solution with low chloride ion concentration the chloride ions flux into the cell when the receptors are activated. All experiments were performed at room temperature (21 to 23° C.). A standard protocol was used for all experiments.
GABA applications: By using the Dynaflow equipment it is possible to study transfected HEK-293 during almost physiological conditions. The Dynaflow system allows application of solutions for as short as 40 ms up to minutes in time. Physiologically, in the synaptic cleft, GABA is released in mM range for about 2 ms this is valid for alpha1 receptors. […]

[2] = target: T2, human α1β2γ2L GABAA receptor (Homo sapiens, UniProt P14867+P18507+P47870); assay: Patch clamp (Dynaflow) current response mediated by chloride ion flux, α1β2γ2L GABAA receptor in HEK-293 cells
T2 construct: expressed in transfected cells
T2 sequence (P14867 28-456): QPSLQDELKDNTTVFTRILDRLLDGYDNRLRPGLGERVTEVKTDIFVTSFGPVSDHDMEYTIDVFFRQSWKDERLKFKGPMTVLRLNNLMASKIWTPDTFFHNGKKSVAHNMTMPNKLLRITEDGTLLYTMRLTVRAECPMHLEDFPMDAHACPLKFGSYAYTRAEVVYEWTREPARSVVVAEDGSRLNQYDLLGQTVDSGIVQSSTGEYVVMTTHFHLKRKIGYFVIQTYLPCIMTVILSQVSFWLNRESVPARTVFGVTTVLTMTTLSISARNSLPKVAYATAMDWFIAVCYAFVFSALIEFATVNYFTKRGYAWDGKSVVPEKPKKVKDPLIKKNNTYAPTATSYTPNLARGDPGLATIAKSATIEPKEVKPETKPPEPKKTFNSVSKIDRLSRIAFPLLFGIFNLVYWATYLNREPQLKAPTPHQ
T2 sequence (P47870 26-474 isoform P47870-1 limits assumed): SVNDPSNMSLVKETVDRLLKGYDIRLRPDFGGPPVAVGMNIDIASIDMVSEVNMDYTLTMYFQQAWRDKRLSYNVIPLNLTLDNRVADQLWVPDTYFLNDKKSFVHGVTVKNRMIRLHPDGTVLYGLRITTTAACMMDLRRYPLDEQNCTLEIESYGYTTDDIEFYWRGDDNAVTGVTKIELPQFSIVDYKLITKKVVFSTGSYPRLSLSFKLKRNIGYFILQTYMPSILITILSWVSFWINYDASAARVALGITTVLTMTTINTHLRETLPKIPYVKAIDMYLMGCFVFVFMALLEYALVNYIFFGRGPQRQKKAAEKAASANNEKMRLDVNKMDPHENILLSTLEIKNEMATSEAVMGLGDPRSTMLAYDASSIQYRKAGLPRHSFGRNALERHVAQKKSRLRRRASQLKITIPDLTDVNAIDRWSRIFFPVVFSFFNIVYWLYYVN
T2 sequence (P18507 40-475): as the sequence (P18507 40-475) above
Excerpt: as §1, §2, §3, §4
(§5) Steroids and GABA: GABA was dissolved in EC-solution by ultrasound for about 40 minutes to the concentration of 10 mM in room temperature. All steroids were dissolved to the concentration of 6 mM in ethanol. The ethanol concentration was 0.1% in all end-solutions, including the wash solution (EC) and the solution with GABA alone. End-solutions are the solutions added into the wells of the chip.
(§6) Electrophysiology: Patch electrodes were pulled from 1.5 mm O.D., 0.86 mm I.D. borosilicate capillary glass without filament. […] The intracellular solution consisted of (in mM): 140 Cs-gluconate, 3.0 NaCl, 1.2 MgCl2, 1.0 EGTA, 10 HEPES. pH was adjusted to 7.2 with CsOH. The extracellular (EC) solution used during recordings contained (in mM): 137 NaCl, 5.0 KCl, 1.0 CaCl2, 1.2 MgCl2, 10 HEPES, 10 glucose. pH was adjusted with NaOH to 7.4. After compensating for the liquid junction potential a steady holding potential of −17 mV was used in all experiments. In physiological conditions the HEK-293 has a resting potential at −40 mV and a low concentration of chloride ions inside the cell. By using the holding potential of −17 mV and the intracellular solution with low chloride ion concentration the chloride ions flux into the cell when the receptors are activated. All experiments were performed at room temperature (21 to 23° C.). A standard protocol was used for all experiments. […]

α5β3γ2L GABAA receptor [3] = target: T1, α5β3γ2L GABAA receptor; assay: Patch clamp (Dynaflow) current response mediated by chloride ion flux, α5β3γ2L GABAA receptor in HEK-293 cells; conditions: for Relative effect Mean (%) / Relative effect Median: 200 nM THDOC + 0.3 μM GABA, control set to 0
Excerpt: as §1, §2, §3, §4, §5, §6

C#C[C@]1(O)CC[C@@]2(C)C(CCC3C2CC[C@@]2(C)C3CC[C@@H]2/C(C)=N/O)C1 (stereo partly drawn) [Compound, 3α-ethynyl, 3β-hydroxy, 5α-pregnan-20-oxime]
Mean % (SEM) Compound + GABA, change in chloride flow (α5β3γ2L GABAA receptor [1]; 1 μM steroid, α5β3γ2L): −19 (2) %
Mean % (SEM) Compound + THDOC + GABA, change in chloride flow (α5β3γ2L GABAA receptor [1]; 1 μM steroid, α5β3γ2L): −15 (3) %
Mean % (SEM) Compound + THDOC, change in chloride flow (α5β3γ2L GABAA receptor [1]; 1 μM steroid, α5β3γ2L): −30 (6) %
Mean % (SEM) Compound alone, change in chloride flow (α5β3γ2L GABAA receptor [1]; 1 μM steroid, α5β3γ2L): no effect
mode of action, Compound + GABA (α5β3γ2L GABAA receptor [1]; 1 μM steroid, α5β3γ2L): antagonist
mode of action, Compound + THDOC (α5β3γ2L GABAA receptor [1]; 1 μM steroid, α5β3γ2L): antagonist
mode of action, Compound + THDOC + GABA (α5β3γ2L GABAA receptor [1]; 1 μM steroid, α5β3γ2L): antagonist
action on the GABA receptor subunit alpha 5 (α5β3γ2L GABAA receptor [1]): antagonist
direct activation of the GABAA receptor in absence of GABA ([2]; 1 μM compound): did not activate
increase of GABA mediated current response ([2]; 1 μM compound, α1β2γ2L): approximately 10%
effect on GABA's opening of the α1β2γ2L GABAA receptor ([2]; compound + GABA): slight agonistic effect
effect of compound alone on chloride flux ([2]; compound alone): no enhancing or antagonizing effect
Compound + GABA, current response ([2]; α1β2γ2L): +11 ± 4
antagonistic effect against the enhancing effect of THDOC ([2]; α1β2γ2L receptor): no antagonistic effect
Compound + GAMS + GABA, current response ([2]; α1β2γ2L, GAMS = THDOC): No effect
Compound alone, current response ([2]; α1β2γ2L, no GABA, no GAMS): No effect
Relative effect Mean (%) (α5β3γ2L GABAA receptor [3]; 0.1 μM compound): −3.0%
Relative effect Median (α5β3γ2L GABAA receptor [3]; 0.1 μM compound): −1.6
effect on 200 nM THDOC evoked current (direct activation by GAMS) (α5β3γ2L GABAA receptor [3]; 200 nM THDOC, no GABA): antagonizing effect
Relative effect Mean (%) (α5β3γ2L GABAA receptor [3]; 0.3 μM compound): −6.6%
Relative effect Median (α5β3γ2L GABAA receptor [3]; 0.3 μM compound): −6.9
Relative effect Mean (%) (α5β3γ2L GABAA receptor [3]; 1 μM compound): −15.2%
Relative effect Median (α5β3γ2L GABAA receptor [3]; 1 μM compound): −11.0
Relative effect Mean (%) (α5β3γ2L GABAA receptor [3]; 3 μM compound): −20.7%
Relative effect Median (α5β3γ2L GABAA receptor [3]; 3 μM compound): −23.6
effect on 200 nM GAMS (THDOC) and 0.3 μM GABA evoked currents (α5β3γ2L GABAA receptor [3]; 0.1-3 μM compound): clear concentration dependent antagonizing effect
action on α5β3γ2L receptor subtype (α5β3γ2L GABAA receptor [3]; all tested situations with GAMS and GABA): antagonist
Compound + GABA, current response (α5β3γ2L GABAA receptor [3]; α5β3γ2): −18.8 ± 2.2
Compound + GAMS + GABA, current response (α5β3γ2L GABAA receptor [3]; α5β3γ2, GAMS = THDOC): −15.2 ± 2.8
Compound + GAMS, current response (α5β3γ2L GABAA receptor [3]; α5β3γ2, GAMS = THDOC, no GABA): −29.7 ± 6.5
Compound alone, current response (α5β3γ2L GABAA receptor [3]; α5β3γ2, no GABA, no GAMS): No effect

C#C[C@@]1(O)CC[C@@]2(C)[C@@H](CC[C@@H]3[C@@H]2CC[C@]2(C)[C@@H](C(C)=NO)CC[C@@H]32)C1 [Comparator, 3β-ethynyl, 3α-hydroxy, 5α-pregnan-20-oxime]
Mean % (SEM) Compound + GABA, change in chloride flow (α5β3γ2L GABAA receptor [1]; 1 μM steroid, α5β3γ2L): +210 (23) %
Mean % (SEM) Compound + THDOC + GABA, change in chloride flow (α5β3γ2L GABAA receptor [1]; 1 μM steroid, α5β3γ2L): +80 (8) %
Mean % (SEM) Compound + THDOC, change in chloride flow (α5β3γ2L GABAA receptor [1]; 1 μM steroid, α5β3γ2L): +128 (22) %
Mean % (SEM) Compound alone, change in chloride flow (α5β3γ2L GABAA receptor [1]; 1 μM steroid, α5β3γ2L): +50 (12) %
mode of action, Compound + GABA (α5β3γ2L GABAA receptor [1]; 1 μM steroid, α5β3γ2L): agonist
mode of action, Compound + THDOC (α5β3γ2L GABAA receptor [1]; 1 μM steroid, α5β3γ2L): agonist
mode of action, Compound + THDOC + GABA (α5β3γ2L GABAA receptor [1]; 1 μM steroid, α5β3γ2L): agonist
mode of action, Compound alone (α5β3γ2L GABAA receptor [1]; 1 μM steroid, α5β3γ2L): agonist
action on the GABA receptor subunit alpha 5 (α5β3γ2L GABAA receptor [1]): agonist
